From patent US20240246946A1, “MODULATORS OF TREX1” (Constellation Pharmaceuticals, Inc., priority 2021, published 2024) come the findings set out here.

SMILES strings stand for the structures.

The term IC50 denotes the concentration that gives 50% inhibition.

Test [1] deals with T1, full length human TREX1 (Homo sapiens, UniProt Q9NSU2).
T1 construct: N-terminally His-Tev tagged full length human TREX1; made in house; host or cells: E. coli
T1 sequence (Q9NSU2 1-314): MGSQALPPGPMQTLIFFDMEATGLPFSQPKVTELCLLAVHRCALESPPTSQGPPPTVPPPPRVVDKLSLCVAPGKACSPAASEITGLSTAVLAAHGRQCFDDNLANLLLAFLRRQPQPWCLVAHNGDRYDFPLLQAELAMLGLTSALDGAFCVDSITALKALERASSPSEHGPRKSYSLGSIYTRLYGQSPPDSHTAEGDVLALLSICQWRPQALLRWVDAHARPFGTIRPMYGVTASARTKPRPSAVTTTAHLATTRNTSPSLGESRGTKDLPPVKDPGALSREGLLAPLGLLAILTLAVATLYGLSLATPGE
Description: hTREX1 Biochemical Assay (fluorescence, dsDNA substrate degradation). Particulars: biochemical, read-out: hTREX1 IC50. The protocol: (§1) Degradation of the dsDNA liberates free fluorophore to produce a fluorescent signal. Specifically, 7.5 μL of N-terminally His-Tev tagged full length human TREX1 (expressed in E. coli and purified in house) in reaction buffer (50 mM Tris, 150 mM NaCl, 2 mM DTT, 0.1 mg/mL BSA, 0.01% (w/v) Tween-20, 5 mM MgCl2, pH 7.4) was added to a 384-well Black ProxiPlate Plus (PerkinElmer) which already contained compound (150 nL) at varying concentrations as a 10 point dose-response in DMSO. The plate was incubated at 25° C. for 4 hours. Reactions were initiated by adding 7.5 μL of dsDNA substrate (Strand A: 5′ TEX615/GCT AGG CAG 3′; Strand B: 5′ CTG CCT AGC/IAbRQSp (Integrated DNA Technologies)) in reaction buffer. Final concentrations were 4 pM TREX1, 60 nM dsDNA substrate in reaction buffer with 1.0% DMSO (v/v). After 18 hours at 25° C., reactions were quenched by the addition of 2 μL of 500 mM EDTA.

Test [2] deals with T2, full length mouse TREX1 (Mus musculus, UniProt Q91XB0).
T2 construct: N-terminally His-Tev tagged full length mouse TREX1; made in house; host or cells: E. coli
T2 sequence (Q91XB0 1-314): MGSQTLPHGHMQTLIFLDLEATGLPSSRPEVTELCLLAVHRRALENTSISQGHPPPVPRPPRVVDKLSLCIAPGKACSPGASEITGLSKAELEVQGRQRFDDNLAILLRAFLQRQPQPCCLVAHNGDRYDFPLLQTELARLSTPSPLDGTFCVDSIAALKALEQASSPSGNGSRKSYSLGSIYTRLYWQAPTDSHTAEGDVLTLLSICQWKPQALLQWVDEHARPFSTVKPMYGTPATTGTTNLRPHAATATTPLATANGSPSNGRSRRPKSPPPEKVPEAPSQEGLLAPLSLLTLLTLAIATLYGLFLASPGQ
In words: mTREX1 Biochemical Assay (fluorescence, dsDNA substrate degradation). Particulars: biochemical, read-out: mTREX1 IC50. The protocol: as §1, with “length mouse” for “length human”, “were 6” for “were 4”

Regarding `CC(c1nc(C(=O)Nc2cnoc2)c(O)c(=O)n1C)C(c1cnn(C)c1)c1ccc(F)cc1C#N` (single isomer, unassigned) [Example 15 D1E2], the IC50 in test [1] and in test [2] was greater than 10 nM throughout.

With `CC(c1nc(C(=O)Nc2cnoc2)c(O)c(=O)n1C)C(c1cnn(C)c1)c1ccc(F)cc1C#N` (single isomer, unassigned) [Example 15 D2E2], the IC50 in test [1] and in test [2] was greater than 10 nM throughout.

With `CCn1cc(C(c2ccc(F)cc2C#N)C(C)c2nc(C(=O)Nc3cnoc3)c(O)c(=O)n2C)cn1` (single isomer, unassigned) [Example 16 D1E2], the half-inhibitory concentration (IC50) in test [1] and in test [2] was greater than 10 nM in each case.

On to `CCn1cc(C(c2ccc(F)cc2C#N)C(C)c2nc(C(=O)Nc3cnoc3)c(O)c(=O)n2C)cn1` (single isomer, unassigned) [Example 16 D2E1], for which the IC50 in test [1] and in test [2] was greater than 10 nM in each case.

Consider `CCn1cc(C(c2ccc(F)cc2C#N)C(C)c2nc(C(=O)Nc3cnoc3)c(O)c(=O)n2C)cn1` (single isomer, unassigned) [Example 16 D2E2], for which the IC50 in test [1] and in test [2] was greater than 10 nM throughout.

For `CCn1cc(C(c2cc(F)ccc2C#N)C(C)c2nc(C(=O)Nc3cnoc3)c(O)c(=O)n2C)cn1` (single isomer, unassigned) [Example 17 D1E1], the IC50 in test [1] and in test [2] was greater than 10 nM throughout.

`CCn1cc(C(c2cc(F)ccc2C#N)C(C)c2nc(C(=O)Nc3cnoc3)c(O)c(=O)n2C)cn1` (single isomer, unassigned) [Example 17 D2E2]: the concentration for half-maximal inhibition (IC50) in test [1] and in test [2] was greater than 10 nM each time.

Take `COCCn1cc(C(c2cc(F)ccc2C#N)C(C)c2nc(C(=O)Nc3cnoc3)c(O)c(=O)n2C)cn1` (single isomer, unassigned) [Example 18 D1E1]: the concentration for half-maximal inhibition (IC50) in test [1] and in test [2] was greater than 10 nM throughout.

On to `COCCn1cc(C(c2cc(F)ccc2C#N)C(C)c2nc(C(=O)Nc3cnoc3)c(O)c(=O)n2C)cn1` (single isomer, unassigned) [Example 18 D2E1], for which the IC50 in test [1] and in test [2] was greater than 10 nM throughout.

With `COCCn1cc(C(c2cc(F)ccc2C#N)C(C)c2nc(C(=O)Nc3cnoc3)c(O)c(=O)n2C)cn1` (single isomer, unassigned) [Example 18 D2E2], the IC50 in test [1] and in test [2] was greater than 10 nM throughout.

In the case of `CC(c1nc(C(=O)Nc2cnoc2)c(O)c(=O)n1C)C(c1cnn(C)c1)c1c(C#N)cccc1C#N` (single isomer, unassigned) [Example 19 D1E1], the IC50 in test [1] and in test [2] was greater than 10 nM throughout.

For `CC(c1nc(C(=O)Nc2cnoc2)c(O)c(=O)n1C)C(c1cnn(C)c1)c1c(C#N)cccc1C#N` (single isomer, unassigned) [Example 19 D2E1], the half-maximal inhibitory concentration (IC50) in test [1] and in test [2] was greater than 10 nM each time.

`CC(c1nc(C(=O)Nc2cnoc2)c(O)c(=O)n1C)C(c1cnn(C)c1)c1c(C#N)cccc1C#N` (single isomer, unassigned) [Example 19 D2E2]: the concentration for half-maximal inhibition (IC50) in test [1] and in test [2] was greater than 10 nM throughout.

Regarding `CC(c1nc(C(=O)Nc2cnoc2)c(O)c(=O)n1C)C(c1cnn(CCN2CCOCC2)c1)c1ccccc1C#N` (single isomer, unassigned) [Example 20 D1E2], the half-inhibitory concentration (IC50) in test [1] and in test [2] was greater than 10 nM throughout.

Regarding `CC(c1nc(C(=O)Nc2cnoc2)c(O)c(=O)n1C)C(c1cnn(CCN2CCOCC2)c1)c1ccccc1C#N` (single isomer, unassigned) [Example 20 D2E2], the IC50 in test [1] and in test [2] was greater than 10 nM throughout.

In the case of `CC(c1nc(C(=O)Nc2cnoc2)c(O)c(=O)n1C)C(c1cnn(CCN2CCN(C(=O)OC(C)(C)C)CC2)c1)c1ccccc1C#N` (single isomer, unassigned) [Example 21 D1E2], the IC50 in test [1] and in test [2] was greater than 10 nM in each case.
